For series [1] the following is noted: in vivo; cited from earlier work.
Series [2] concerns locally advanced or metastatic urothelial carcinoma with selected FGFR3 alterations. The series is described as follows: Study BLC3001 Cohort 2: efficacy of BALVERSA versus pembrolizumab. The format is in vivo, human. To be noted: (95% CI).
Description: Subjects are assigned to Cohort 1 or Cohort 2 based upon prior treatment with an anti-PD-(L)1 agent. […] Cohort 1 and Cohort 2 are assessed independently.

As for `CC(=O)O[C@@]12CO[C@@H]1C[C@H](O)[C@@]1(C)C(=O)[C@H](O)C3=C(C)[C@@H](OC(=O)[C@H](O)[C@@H](NC(=O)OC(C)(C)C)c4ccccc4)C[C@@](O)([C@@H](OC(=O)c4ccccc4)[C@H]21)C3(C)C` [Docetaxel], in series [1], the Cystoid macular edema result was “Cystoid macular edema has been reported” and the Severe fluid retention result is “Severe fluid retention has been reported”.
As to `CC[C@]12C=CCN3CC[C@@]4(c5cc([C@@]6(C(=O)OC)C[C@@H]7C[C@@H](C(C)(F)F)CN(Cc8c6[nH]c6ccccc86)C7)c(OC)cc5N(C)[C@H]4[C@@](O)(C(=O)OC)[C@@H]1OC(C)=O)[C@@H]32` [Vinflunine], the “Posterior reversible encephalopathy syndrome (PRES)” value in series [1] is given as “Cases of posterior reversible encephalopathy syndrome (PRES) have been observed”.
Turning to “Pembrolizumab: anti-PD-(L)1 agent pembrolizumab, 200 mg every 3 weeks”, in series [2], the “Median OS” value is listed as 11.1 (95% CI: 9.7, 13.6) months.

Values taken from US20260345596A1, “TREATMENT OF LOCALLY ADVANCED OR METASTATIC UROTHELIAL CARCINOMA WITH ERDAFINITIB” (priority 2023, published 2026).
